Assay results from patent US11098040B2, “Compounds and methods of use” (Ferro Therapeutics, Inc., priority 2018, dated 2021).

System: not listed separately
Experiment: Whole blood stability, mouse
Type: in vitro ADME
Conditions: 0 min
Excerpt: (§1) The results of the assay on stability in blood and IC50 values for pancreatic cancer cell line KP4 are given below in Table 24.

| Compound | Whole Blood Stability % Remaining at 37° C. Mouse |
| --- | --- |
| CC[C@H]1Cc2c([nH]c3ccccc23)[C@H](c2ccc(N3CCOCC3)cc2)N1C(=O)CCl [Compound 117] | 100.0% |
| COC(=O)[C@H]1Cc2c([nH]c3ccccc23)[C@H](c2ccc(O)cc2)N1C(=O)CCl [Compound 265] | 100.0% |

Same assay, conditions: 30 min

| Compound | Whole Blood Stability % Remaining at 37° C. Mouse |
| --- | --- |
| CC[C@H]1Cc2c([nH]c3ccccc23)[C@H](c2ccc(N3CCOCC3)cc2)N1C(=O)CCl [Compound 117] | 92.3% |
| COC(=O)[C@H]1Cc2c([nH]c3ccccc23)[C@H](c2ccc(O)cc2)N1C(=O)CCl [Compound 265] | 75.5% |

Same assay, conditions: 60 min

| Compound | Whole Blood Stability % Remaining at 37° C. Mouse |
| --- | --- |
| CC[C@H]1Cc2c([nH]c3ccccc23)[C@H](c2ccc(N3CCOCC3)cc2)N1C(=O)CCl [Compound 117] | 45.8% |
| COC(=O)[C@H]1Cc2c([nH]c3ccccc23)[C@H](c2ccc(O)cc2)N1C(=O)CCl [Compound 265] | 61.6% |

System: A549
Experiment: Cell viability assay, A549 cells
Type: cell-based
Conditions: Cell Line A549; read-out: IC50
Description: Example 5: Inducer Compound Effect on Growth of A549 and KP4 Cells
Cell viability assay was performed to assess the potency of the compounds in cancer cell line KP4 (pancreatic ductal adenocarcinoma). Cells at a density of 1,000-10,000 cells/well were seeded in 96-well plates and incubated at 37° C. overnight. A series of 9 different concentrations of compound stocks (500×) were created by 3-fold serial dilution in DMSO. These compounds were further diluted in culture media and then added to cells so that the final DMSO concentration was equal to 0.25% or less. After 96 hours of incubation, 50 μL of CellTiter Glo reagent (Promega) was added to each well and luminescence was measured after 10 minutes using EnVision (PerkinElmer). All compounds were tested initially from 30 μM as the top concentration in duplicates (range of 4.6 nM-30 μM). […] Luminescence from cells treated with DMSO alone was set as Max and % of inhibition was calculated as follows: Inhibition %=(Max-Sample value)/Max*100. Data was analyzed using XL-fit software (ID Business Solutions Ltd.). IC50, relative IC50, or % of top inhibition was calculated. […]

| Compound | IC50 |
| --- | --- |
| C#CC(=O)N1[C@@H](CCCCCC)Cc2c([nH]c3ccccc23)[C@@H]1c1ccc(F)cc1 [Compound 176] | 4.18 µM |

Same assay, conditions: Homo sapiens, A549, A549; read-out: IC50 for A549

| Compound | IC50 |
| --- | --- |
| C[C@H]1Cc2c([nH]c3ccc(Cl)cc23)[C@H](c2ccc(N3CCOCC3)cc2)N1C(=O)CCl [Example 120] | 0.81 µM |

Same assay, conditions: Homo sapiens, A549, Cell Line A549; read-out: IC50

| Compound | IC50 |
| --- | --- |
| CC[C@H]1Cc2c([nH]c3ccccc23)[C@H](c2ccc(N3CCOCC3)cc2)N1C(=O)CCl [Compound 117] | 4.71 µM |
| C#CC(=O)N1[C@@H](CCCC)Cc2c([nH]c3c(F)cc(CO)cc23)[C@@H]1c1ccc(F)cc1 [Compound 134] | > 30 µM |
| C#CC(=O)N1[C@@H](CCCC)Cc2c([nH]c3ccccc23)[C@@H]1C12CC(F)(C1)C2 [Compound 154] | 7.95 µM |
| C#CC(=O)N1[C@@H](CCCC)Cc2c([nH]c3ccc(OC)cc23)[C@@H]1c1ccc(F)cc1 [Compound 155] | 8.52 µM |
| C#CC(=O)N1[C@@H](CCCCCC)Cc2c([nH]c3ccccc23)[C@@H]1c1ccc(F)cc1 [Compound 176] | 4.1 µM |
| C#CC(=O)N1[C@@H](c2ccc(F)cc2)c2[nH]c3ccccc3c2C[C@@H]1C1CCCC1 [Compound 177] | 3.22 µM |
| C=CC(=O)N1[C@@H](CCCC)Cc2c([nH]c3ccccc23)[C@@H]1c1ccc(F)cc1 [Compound 179] | 27.4 µM |
| CC#CC(=O)N1[C@@H](CCCC)Cc2c([nH]c3ccccc23)[C@@H]1c1ccc(F)cc1 [Compound 180] | 28.4 µM |

Next, values leading:

| IC50 | Compound |
| --- | --- |
| > 30 µM | C#CC(=O)N1[C@@H](C)Cc2c([nH]c3ccccc23)[C@@H]1C12CC(F)(C1)C2 [Compound 182] |
| > 30 µM | C=C(C(=O)N1[C@@H](CCCC)Cc2c([nH]c3ccccc23)[C@@H]1c1ccc(F)cc1)C(F)(F)F [Compound 184] |
| > 30 µM | C=C(F)C(=O)N1[C@@H](CCCC)Cc2c([nH]c3ccccc23)[C@@H]1c1ccc(F)cc1 [Compound 186] |
| 3.05 µM | C#CC(=O)N1[C@@H](c2ccc(F)cc2)c2[nH]c3ccccc3c2C[C@@H]1C#N [Compound 190] |
| 25.4 µM | COC(=O)[C@H]1Cc2c([nH]c3ccccc23)[C@H](c2ccc(O)cc2)N1C(=O)CCl [Compound 265] |

System: KP4
Experiment: Cell viability assay (CellTiter Glo), pancreatic ductal adenocarcinoma KP4
Type: cell-based, human
Conditions: Homo sapiens, KP-4, 96 h, pancreatic cancer cell line KP4, 96 hours, CellTiter Glo; read-out: IC50 μM KP4
Method in brief: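 Luminescent ATP readout (CellTiter Glo) after 96 h compound exposure, normalized to DMSO-treated cells as maximum. Compounds ran in duplicate, nine 3-fold steps from 30 μM down to 4.6 nM, final DMSO ≤0.25%; KP4 plated overnight at 1,000–10,000 cells/well. Outputs: IC50, relative IC50 or % top inhibition.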

| Compound | IC50 |
| --- | --- |
| CC[C@H]1Cc2c([nH]c3ccccc23)[C@H](c2ccc(N3CCOCC3)cc2)N1C(=O)CCl [Compound 117] | < 0.01 µM |
| COC(=O)[C@H]1Cc2c([nH]c3ccccc23)[C@H](c2ccc(O)cc2)N1C(=O)CCl [Compound 265] | 0.1 to 0.5 µM |

Same assay, conditions: Homo sapiens, KP-4, Cell Line KP4; read-out: IC50

| Compound | IC50 |
| --- | --- |
| C[C@H]1Cc2c([nH]c3ccc(Cl)cc23)[C@H](c2ccc(N3CCOCC3)cc2)N1C(=O)CCl [Example 120] | 0.362 µM |

System: 786-O
Experiment: Cell proliferation (Alamar Blue) assay, 786-O renal cell carcinoma, with/without ferrostatin
Type: cell-based
Conditions: Homo sapiens, 786-0, Cell Line 786-O; read-out: IC50
Description: (§2) Cell viability assay was performed to assess the potency of the compounds in human cancer cell lines 786-O (renal cell carcinoma) and SJSA-1 (osteosarcoma). Additional cell lines, such as those described above in Example 4 as well as various others, e.g., pancreatic cancer cell lines (Panc 02.13, BxPC-3, Panc 12, Panc 02.03, Panc 6.03, PSN-1, HPAC, and Capan-1) and prostate cancer cell lines (PC-3, DU145, 22Rv1, NCI-H660, BPH1, LNCaP, BM-1604, and MDA PCa 2b), were tested for select compounds as shown in Table 25.
(§3) Cells (SJSA-1, 786-O and A431) were seeded (5000 cells/100 μL/well) in 96-well tissue culture plate and incubated at 37° C./5% CO2 for 16-24 hours. The cells were then treated with compounds (25 μL of 5×). The compound concentrations were 10-0.0005 μM prepared in 3-fold serial dilutions with final DMSO concentration of 1%. The plates were then incubated for 24 h at 37° C./5% CO2 in a moist environment. Then Alamar Blue™ reagent (final concentration 1×-12.5 μL) was added to each well and incubated for 1.5 hours at 37° C./5% CO2. The plates were read on fluorescence reader at 540 nm excitation and 590 nm emission wavelengths. The IC50 values were subsequently determined using a sigmoidal dose-response curve (variable slope) in GraphPad Prism® 5 software.
(§4) Studies have shown that lipophilic antioxidants, such as ferrostatin, can rescue cells from GPX4 inhibition-induced ferroptosis. For instance, mesenchymal state GPX4-knockout cells can survive in the presence of ferrostatin, however, when the supply of ferrostatin is terminated, these cells undergo ferroptosis (see, e.g., Viswanathan et al., Nature 547:453-7, 2017). […] Accordingly, the ability of a molecule to induce ferroptotic cancer cell death, and that such ability is admonished by the addition of ferrostatin, is clear indication that the molecule is an GPX4 inhibitor.

| Compound | IC50 |
| --- | --- |
| C#CC(=O)N1[C@@H](CCCC)Cc2c([nH]c3c(F)cc(CO)cc23)[C@@H]1c1ccc(F)cc1 [Compound 134] | 8.19 µM |
| C#CC(=O)N1[C@@H](CCCC)Cc2c([nH]c3ccccc23)[C@@H]1C12CC(F)(C1)C2 [Compound 154] | 0.117 µM |
| C#CC(=O)N1[C@@H](CCCC)Cc2c([nH]c3ccc(OC)cc23)[C@@H]1c1ccc(F)cc1 [Compound 155] | 0.113 µM |
| C#CC(=O)N1[C@@H](c2ccc(F)cc2)c2[nH]c3ccccc3c2C[C@@H]1C1CCCC1 [Compound 177] | 0.0788 µM |
| C=CC(=O)N1[C@@H](CCCC)Cc2c([nH]c3ccccc23)[C@@H]1c1ccc(F)cc1 [Compound 179] | > 30 µM |
| CC#CC(=O)N1[C@@H](CCCC)Cc2c([nH]c3ccccc23)[C@@H]1c1ccc(F)cc1 [Compound 180] | > 30 µM |

Results, then the molecule that gave them:

| IC50 | Compound |
| --- | --- |
| 0.962 µM | C#CC(=O)N1[C@@H](C)Cc2c([nH]c3ccccc23)[C@@H]1C12CC(F)(C1)C2 [Compound 182] |
| 12.3 µM | C=C(C(=O)N1[C@@H](CCCC)Cc2c([nH]c3ccccc23)[C@@H]1c1ccc(F)cc1)C(F)(F)F [Compound 184] |
| > 30 µM | C=C(F)C(=O)N1[C@@H](CCCC)Cc2c([nH]c3ccccc23)[C@@H]1c1ccc(F)cc1 [Compound 186] |
| 1.2 µM | C#CC(=O)N1[C@@H](c2ccc(F)cc2)c2[nH]c3ccccc3c2C[C@@H]1C#N [Compound 190] |

System: SJSA-1
Experiment: Cell proliferation (Alamar Blue) assay, SJSA-1 osteosarcoma, with/without ferrostatin
Type: cell-based, human
Conditions: Cell Line SJSA-1; read-out: IC50
Description: as §2, §3, §4

| Compound | IC50 |
| --- | --- |
| C#CC(=O)N1[C@@H](CCCCCC)Cc2c([nH]c3ccccc23)[C@@H]1c1ccc(F)cc1 [Compound 176] | 0.25 µM |

Same assay, conditions: Homo sapiens, SJSA-1, Cell Line SJSA-1; read-out: IC50

| Compound | IC50 |
| --- | --- |
| C#CC(=O)N1[C@@H](CCCC)Cc2c([nH]c3c(F)cc(CO)cc23)[C@@H]1c1ccc(F)cc1 [Compound 134] | 0.146 µM |
| C#CC(=O)N1[C@@H](CCCC)Cc2c([nH]c3ccccc23)[C@@H]1C12CC(F)(C1)C2 [Compound 154] | 0.108 µM |
| C#CC(=O)N1[C@@H](CCCC)Cc2c([nH]c3ccc(OC)cc23)[C@@H]1c1ccc(F)cc1 [Compound 155] | 0.081 µM |
| C#CC(=O)N1[C@@H](CCCCCC)Cc2c([nH]c3ccccc23)[C@@H]1c1ccc(F)cc1 [Compound 176] | 0.206 µM |
| C#CC(=O)N1[C@@H](c2ccc(F)cc2)c2[nH]c3ccccc3c2C[C@@H]1C1CCCC1 [Compound 177] | 0.0677 µM |
| C=CC(=O)N1[C@@H](CCCC)Cc2c([nH]c3ccccc23)[C@@H]1c1ccc(F)cc1 [Compound 179] | > 30 µM |
| CC#CC(=O)N1[C@@H](CCCC)Cc2c([nH]c3ccccc23)[C@@H]1c1ccc(F)cc1 [Compound 180] | > 30 µM |

Other lines, results leading:

| IC50 | Compound |
| --- | --- |
| 0.667 µM | C#CC(=O)N1[C@@H](C)Cc2c([nH]c3ccccc23)[C@@H]1C12CC(F)(C1)C2 [Compound 182] |
| 16.2 µM | C=C(C(=O)N1[C@@H](CCCC)Cc2c([nH]c3ccccc23)[C@@H]1c1ccc(F)cc1)C(F)(F)F [Compound 184] |
| > 30 µM | C=C(F)C(=O)N1[C@@H](CCCC)Cc2c([nH]c3ccccc23)[C@@H]1c1ccc(F)cc1 [Compound 186] |
| 0.908 µM | C#CC(=O)N1[C@@H](c2ccc(F)cc2)c2[nH]c3ccccc3c2C[C@@H]1C#N [Compound 190] |

System: not listed separately
Experiment: Whole blood stability, human
Type: in vitro ADME
Conditions: 0 min
Excerpt: as §1

| Compound | Whole Blood Stability % Remaining at 37° C. Human |
| --- | --- |
| CC[C@H]1Cc2c([nH]c3ccccc23)[C@H](c2ccc(N3CCOCC3)cc2)N1C(=O)CCl [Compound 117] | 100.0% |
| COC(=O)[C@H]1Cc2c([nH]c3ccccc23)[C@H](c2ccc(O)cc2)N1C(=O)CCl [Compound 265] | 100.0% |

Same assay, conditions: 30 min

| Compound | Whole Blood Stability % Remaining at 37° C. Human |
| --- | --- |
| CC[C@H]1Cc2c([nH]c3ccccc23)[C@H](c2ccc(N3CCOCC3)cc2)N1C(=O)CCl [Compound 117] | 80.5% |
| COC(=O)[C@H]1Cc2c([nH]c3ccccc23)[C@H](c2ccc(O)cc2)N1C(=O)CCl [Compound 265] | 61.6% |

Same assay, conditions: 60 min

| Compound | Whole Blood Stability % Remaining at 37° C. Human |
| --- | --- |
| CC[C@H]1Cc2c([nH]c3ccccc23)[C@H](c2ccc(N3CCOCC3)cc2)N1C(=O)CCl [Compound 117] | 70.3% |
| COC(=O)[C@H]1Cc2c([nH]c3ccccc23)[C@H](c2ccc(O)cc2)N1C(=O)CCl [Compound 265] | 45.2% |
